In ChEMBL document CHEMBL1126294, “Benz[f]isoquinoline analogues as high-affinity sigma ligands” (J Med Chem, 1992):

molecular target: D(2) dopamine receptor (Rattus norvegicus, UniProt P61169); test: Inhibition of [3H](-)-sulpiride binding to rat striatum dopamine receptor D2; assay type: tissue-based
Sequence (P61169 whole entry): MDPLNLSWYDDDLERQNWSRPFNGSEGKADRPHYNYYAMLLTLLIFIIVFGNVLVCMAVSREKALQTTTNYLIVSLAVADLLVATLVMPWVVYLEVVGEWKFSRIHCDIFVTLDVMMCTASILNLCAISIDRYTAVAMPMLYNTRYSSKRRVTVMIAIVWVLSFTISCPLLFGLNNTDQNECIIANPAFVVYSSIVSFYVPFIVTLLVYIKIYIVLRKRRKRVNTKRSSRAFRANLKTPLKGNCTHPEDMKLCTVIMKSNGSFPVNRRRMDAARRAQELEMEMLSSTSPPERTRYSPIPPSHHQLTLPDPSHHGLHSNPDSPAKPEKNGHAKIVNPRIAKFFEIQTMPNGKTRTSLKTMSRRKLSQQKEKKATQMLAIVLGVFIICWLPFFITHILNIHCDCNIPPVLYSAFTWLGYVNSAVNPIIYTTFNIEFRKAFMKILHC

How did the IC50 turn out when CCCCN1CC[C@@H]2c3ccccc3CC[C@H]2C1 was run?
Its IC50 is 389 nM.

How did the IC50 turn out when c1ccc(CCN2CC[C@H]3c4ccccc4CC[C@H]3C2)cc1 was run?
The IC50 was 162 nM.

For COc1ccc(CN2CC[C@H]3c4ccccc4CC[C@H]3C2)cc1, which IC50 is on record?
The IC50 was 35.5 nM.

Which IC50 does the source give for CCCCN1CCC2=C(CCc3ccccc32)C1 here?
Its IC50 is 63.1 nM.

CC(C)(C)c1ccc(CN2CC[C@H]3c4ccccc4CC[C@H]3C2)cc1 was tested. Which IC50 did it give?
Its IC50 is 288 nM.

For CCCCN1CC[C@H]2c3ccccc3CC[C@H]2C1, which IC50 is on record?
Its IC50 is 145 nM.

With CCCCN1CCC2=C(CCCc3ccccc32)C1 as the molecule, how does the IC50 read?
Its IC50 is 61.7 nM.

Which IC50 does the source give for O=[N+]([O-])c1ccc(CCN2CC[C@H]3c4ccccc4CC[C@H]3C2)cc1 here?
The IC50 was 589 nM.

With CCCCN1CCC2=C(Cc3ccccc32)C1 as the molecule, how does the IC50 read?
Its IC50 is 60.3 nM.

Which IC50 does the source give for c1ccc2c(c1)CC[C@H]1CN(C3CCCCC3)CC[C@@H]21 here?
Its IC50 is 2690 nM.

For c1ccc2c(c1)CC[C@H]1CN(C34C[C@H]5C[C@@H](C3)C[C@@H](C4)C5)CC[C@@H]21, which IC50 is on record?
Its IC50 is > 10000 nM.

For CCCCN1CCC2c3ccccc3CCCC2C1 (configuration not stated), which IC50 is on record?
Its IC50 is 166 nM.
